For this test, the target named is T1, human OX2R (Homo sapiens, UniProt O43614).
T1 construct: expressed in transfected cells
T1 sequence (O43614 1-444): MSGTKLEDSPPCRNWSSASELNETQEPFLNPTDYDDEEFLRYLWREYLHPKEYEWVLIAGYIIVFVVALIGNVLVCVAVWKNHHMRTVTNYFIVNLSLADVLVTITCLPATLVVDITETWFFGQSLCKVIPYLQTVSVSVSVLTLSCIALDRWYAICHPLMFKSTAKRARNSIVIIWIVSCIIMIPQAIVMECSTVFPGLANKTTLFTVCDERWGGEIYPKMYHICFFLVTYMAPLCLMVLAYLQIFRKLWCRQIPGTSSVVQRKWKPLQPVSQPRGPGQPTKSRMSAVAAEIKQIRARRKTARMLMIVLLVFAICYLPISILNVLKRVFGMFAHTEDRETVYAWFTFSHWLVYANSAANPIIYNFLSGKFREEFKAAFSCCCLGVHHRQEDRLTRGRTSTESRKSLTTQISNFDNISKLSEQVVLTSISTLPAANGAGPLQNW
Put plainly: Measurement of OX2R agonist activity (intracellular calcium concentration change, Fluo4-AM, FDSS 7000). Type of test: cell-based. To be noted: compound concentration 10 μM; human OX2R-expressing CHO-K1 cells; 1 μM human orexin A peptide = 100%, medium alone = 0%. An excerpt: The following abbreviations in the description, the figures and the tables have the following meanings, respectively. • AZADOL (registered trademark): 2-Hydroxy-2-azaadamantane • Boc2O: di-tert-butyl dicarbonate • DIPEA: N,N-diisopropylethylamine • DCM: dichloromethane • DMAP: 4-dimethylaminopyridine • DMF: N,N-dimethylformamide • DMSO: dimethylsulfoxide • Deoxo-Fluor: bis(2-methoxyethyl)-aminosulfur trifluoride • HATU: O-(7-azabenzotriazol-1-yl)-N,N,N′,N′-tetramethyluronium hexafluorophosphate • LDA: lithium diisopropylamide • MeCN: acetonitrile • Me4tBuXPhos: 2-di-tert-butylphosphino-3,4,5,6-tetramethyl-2′,4′,6′-triisopropyl-1,1′-biphenyl • MTBE: methyl tert-butyl ether • NMP: N-methylpyrrolidone • PdCl2(PPh3)2: dichlorobis(triphenylphosphine)palladium(II) • Pd(dba)2: bis(dibenzylideneacetone)palladium(0) • Pd2(dba)3: tris(dibenzylideneacetone)dipalladium(0) • Pd(dppf)Cl2: [1,1′-bis(diphenylphosphino)ferrocene]dichloropalladium(II) • Pd(PPh3)4: tetrakis(triphenylphosphine)palladium(0) • TEA: triethylamine • TFA: trifluoroacetic acid • THF: tetrahydrofuran • Xphos: 2-dicyclohexylphosphino-2′,4′,6′-triisopropylbiphenyl • Xphos Pd G3: (2-dicyclohexylphosphino-2′,4′,6′-triisopropyl-1,1′-biphenyl)[2-(2′-amino-1,1′-biphenyl)]palladium(II) methanesulfonic acid salt • 10% Pd/C: Palladium 10% on Carbon (wetted with ca. 55% water) • APS: aminopropylated silica gel • ODS: octadecyl-silylated silica gel • Method A: column chromatography with an aminopropylated silica gel column followed by a silica gel column • Chiral preparative column chromatography: chiral preparative column chromatography using YMC CHIRALART Cellulose-SB • Ref. No.: Reference Example Number • Str.: structural formula • Ex. No.: Example Number • Phys. data: physical data • ^1H-NMR: hydrogen nuclear magnetic resonance spectrum • CDCl3: chloroform-d1 • MS: mass spectrometry (The measured values in the tables were measured by electrospray ionization or multiionization using electrospray ionization-atmospheric pressure chemical ionization.) • Act.: activation rate of test substance at a compound concentration of 10 μM calculated by setting the fluorescence intensity obtained when human orexin A peptide was added at a concentration of 1 μM as 100% and the fluorescence intensity obtained when the medium alone was added as 0% • CHO: Chinese hamster ovary • HEPES: 2-[4-(2-hydroxyethyl)-1-piperazinyl]ethanesulfonic acid
A human OX2R sequence (Accession No. NM_001526.4) was inserted into the multiple cloning site of pcDNA3.4 (Life Technologies Japan Ltd.) to clone a plasmid vector for human OX2R expression. The plasmid was introduced into CHO-K1 cells using Lipofectamine 2000 (Life Technologies Japan Ltd.). Two days later, the transgenic CHO-K1 cells were passaged into 175T flasks and cultured selectively for 6 days. As a selection medium, Ham's F-12 Nutrient Mix (Life Technologies Japan Ltd.), containing Geneticin (registered trademark) (Life Technologies Japan Ltd.) at a final concentration of 1 mg/mL and inactivated fetal bovine serum (Biowest) at a final concentration of 10%, was used. After the selective culture, the cells were reseeded into 96-well plates, and a human OX2R-expressing cell line was obtained by limiting dilution.
The agonist effects of test substances on human OX2R were evaluated using the intracellular calcium concentration-change upon stimulation as an indicator. A day before measurement of the intracellular calcium concentrations, human OX2R-expressing cells suspended in a medium were seeded into 384-well plates at 5×10^3 cells/50 μL/well and cultured overnight in an incubator set at 37° C. and 5% CO2. After incubation, the medium was removed and replaced with 20 μL of a loading buffer. […]

With `CO[C@H]1CCN(C(=O)[C@@]2(Cc3cccc(-c4ccccc4)c3)CC[C@H](NS(C)(=O)=O)C2)C1` (relative stereo) [Example 70], the “Act. (%): activation rate of test substance” value (from here on “Act. (%): activation rate”) came to 27%. Consider `CS(=O)(=O)N[C@H]1CC[C@](Cc2cccc(-c3ccccc3)c2)(C(=O)N2CCCC2C(F)(F)F)C1` (relative stereo) [Example 71, N-((1S*,3R*)-3-([1,1′-Biphenyl]-3-ylmethyl)-3-(2-(trifluoromethyl)pyrrolidine-1-carbonyl)cyclopentyl)methanesulfonamide], for which the “Act. (%): activation rate” value is given as 41%. `CS(=O)(=O)N[C@H]1CC[C@](Cc2cccc(-c3ccccc3)c2)(C(N)=O)C1` (relative stereo) [Example 72, (1R*,3S*)-1-([1,1′-Biphenyl]-3-ylmethyl)-3-(methylsulfonamido)cyclopentane-1-carboxamide]: the “Act. (%): activation rate” value worked out at 23%.

As to `CS(=O)(=O)N[C@H]1CC[C@](Cc2cccc(-c3ccccc3)c2)(C(=O)NCCO)C1` (relative stereo) [Example 73, (1R*,3S*)-1-([1,1′-Biphenyl]-3-ylmethyl)-N-(2-hydroxyethyl)-3-(methylsulfonamido)cyclopentane-1-carboxamide], the “Act. (%): activation rate” value was 36%. To `CS(=O)(=O)N[C@H]1CC[C@](Cc2cccc(-c3ccccc3)c2)(C(=O)NCC(F)(F)F)C1` (relative stereo) [Example 74, (1R*,3S*)-1-([1,1′-Biphenyl]-3-ylmethyl)-3-(methylsulfonamido)-N-(2,2,2-trifluoroethyl)cyclopentane-1-carboxamide] belongs 33%.

Consider `CS(=O)(=O)N[C@H]1CC[C@](Cc2cccc(-c3ccccc3)c2)(C(=O)N2CCC(F)(F)C2)C1` (relative stereo) [Example 75], for which the “Act. (%): activation rate” value is listed as 23%. `CON(C)C(=O)C1(Cc2cccc(-c3ncccn3)c2)CCC(NS(C)(=O)=O)C1` (single isomer, unassigned) [Example 46, N-Methoxy-N-methyl-3-(methylsulfonamido)-1-(3-(pyrimidin-2-yl)benzyl)cyclopentane-1-carboxamide]: the “Act. (%): activation rate” value is recorded as 93%.

As for `CON(C)C(=O)C1(Cc2cccc(-c3ncccn3)c2)CCC(NS(C)(=O)=O)C1` (single isomer, unassigned) [Example 47, N-Methoxy-N-methyl-3-(methylsulfonamido)-1-(3-(pyrimidin-2-yl)benzyl)cyclopentane-1-carboxamide], the “Act. (%): activation rate” value turned out to be 52%. Consider `CON(C)C(=O)[C@@]1(Cc2ccc(F)c(-c3ncc(F)cn3)c2)CC[C@H](NS(C)(=O)=O)C1` [Example 48, (1R,3S)-1-(4-Fluoro-3-(5-fluoropyrimidin-2-yl)benzyl)-N-methoxy-N-methyl-3-(methylsulfonamido)cyclopentane-1-carboxamide], for which the “Act. (%): activation rate” value was determined as 101%.

Take `CON(C)C(=O)[C@@]1(Cc2ccc(Cl)c(-c3ncc(F)cn3)c2)CC[C@H](NS(C)(=O)=O)C1` [Example 49, (1R,3S)-1-(4-Chloro-3-(5-fluoropyrimidin-2-yl)benzyl)-N-methoxy-N-methyl-3-(methylsulfonamido)cyclopentane-1-carboxamide]: the “Act. (%): activation rate” value stood at 88%. To `CON(C)C(=O)[C@@]1(Cc2ccc(F)c(-c3ncc(F)cn3)c2)CC[C@H](NS(=O)(=O)CF)C1` [Example 50, (1R,3S)-1-(4-Fluoro-3-(5-fluoropyrimidin-2-yl)benzyl)-3-((fluoromethyl)sulfonamido)-N-methoxy-N-methylcyclopentane-1-carboxamide] belongs 110%; to `CON(C)C(=O)[C@@]1(Cc2ccc(F)c(-c3ncc(F)cn3)c2)CC[C@H](NS(=O)(=O)C(F)F)C1` [Example 51, (1R,3S)-3-((Difluoromethyl)sulfonamido)-1-(4-fluoro-3-(5-fluoropyrimidin-2-yl)benzyl)-N-methoxy-N-methylcyclopentane-1-carboxamide], 98%.

With `CCS(=O)(=O)N[C@H]1CC[C@](Cc2ccc(F)c(-c3ncc(F)cn3)c2)(C(=O)N(C)OC)C1` [Example 52, (1R,3S)-3-(Ethylsulfonamido)-1-(4-fluoro-3-(5-fluoropyrimidin-2-yl)benzyl)-N-methoxy-N-methylcyclopentane-1-carboxamide], the “Act. (%): activation rate” value is reported as 99%. To `C=CS(=O)(=O)N[C@H]1CC[C@](Cc2ccc(F)c(-c3ncc(F)cn3)c2)(C(=O)N(C)OC)C1` [Example 53, (1R,3S)-1-(4-Fluoro-3-(5-fluoropyrimidin-2-yl)benzyl)-N-methoxy-N-methyl-3-(vinylsulfonamido)cyclopentane-1-carboxamide] belongs 106%. As for `CON(C)C(=O)[C@@]1(Cc2ccc(F)c(-c3ncc(F)cn3)c2)CC[C@H](NS(=O)(=O)C2COC2)C1` [Example 54, (1R,3S)-1-(4-Fluoro-3-(5-fluoropyrimidin-2-yl)benzyl)-N-methoxy-N-methyl-3-(oxetane-3-sulfonamido)cyclopentane-1-carboxamide], the figure is 90%; as for `CON(C)C(=O)[C@@]1(Cc2ccc(O)c(-c3ncc(F)cn3)c2)CC[C@H](NS(C)(=O)=O)C1` [Example 55, (1R,3S)-1-(3-(5-Fluoropyrimidin-2-yl)-4-hydroxybenzyl)-N-methoxy-N-methyl-3-(methylsulfonamido)cyclopentane-1-carboxamide], 106%; as for `COc1ccc(C[C@]2(C(=O)N(C)OC)CC[C@H](NS(C)(=O)=O)C2)cc1-c1ncc(F)cn1` [Example 56, (1R,3S)-1-(3-(5-Fluoropyrimidin-2-yl)-4-methoxybenzyl)-N-methoxy-N-methyl-3-(methylsulfonamido)cyclopentane-1-carboxamide], 51%. As for `CON(C)C(=O)[C@@]1(Cc2cccc(-c3ncc(F)cn3)c2)C[C@H](F)[C@H](NS(C)(=O)=O)C1` [Example 57, (1R,3S,4R)-3-Fluoro-1-(3-(5-fluoropyrimidin-2-yl)benzyl)-N-methoxy-N-methyl-4-(methylsulfonamido)cyclopentane-1-carboxamide], the figure is 92%; as for `CON(C)C(=O)[C@@]1(Cc2cccc(-c3ncc(F)cn3)c2)C[C@H](F)[C@H](NS(=O)(=O)C(C)C)C1` [Example 58, (1R,3S,4R)-3-Fluoro-1-(3-(5-fluoropyrimidin-2-yl)benzyl)-N-methoxy-N-methyl-4-((1-methylethyl)sulfonamido)cyclopentane-1-carboxamide], 95%.

Turning to `CCS(=O)(=O)N[C@@H]1C[C@@](Cc2cccc(-c3ncc(F)cn3)c2)(C(=O)N(C)OC)C[C@@H]1F` [Example 59, (1R,3R,4S)-3-(Ethylsulfonamido)-4-fluoro-1-(3-(5-fluoropyrimidin-2-yl)benzyl)-N-methoxy-N-methylcyclopentane-1-carboxamide], the “Act. (%): activation rate” value is recorded as 98%.

Source of the values: patent US20260124201A1, “CYCLOPENTANE COMPOUND” (Kissei Pharmaceutical Co., Ltd., priority 2022, published 2026).
